# Test results as given in patent US20190119200A1, “TERTIARY AMIDES AND METHOD OF USE” (AbbVie Inc., priority 2016, published 2019).
# Tests used:
# Format in all cases: cell-based
# LPAR1 [1] = target: T1, LPAR1 (Homo sapiens, UniProt Q92633); assay: IP-One HTRF Assay; settings: U2OS cells stably expressing LPAR1, LPA stimulation, IP-One Tb HTRF kit; for Emax: read-out: Maximum Inhibition
# T1 construct: host or cells: U2OS
# Protocol: U2OS cells stably expressing LPAR1 (Life Technologies #K1519A) were plated at 20000 cells/well in growth medium (McCoy's 5A(Life Technologies #16600-082)) with 10% dFBS (Life Technologies #26400-036), 0.1 mM non-essential amino acids, 25 mM HEPES, 1 mM sodium pyruvate, 1% penicillin/streptomycin, 50 μg/mL hygromycin, and 100 μg/mL Geneticin® in tissue culture treated 384-well white plates (Greiner #781080) in humidified 5% CO2 at 37° C. overnight. On the day of the assay, culture medium was replaced with 30 μL/well of McCoy's 5A with 0.1% BSA. Cells were incubated in humidified 5% CO2 at 37° C. for 3 more hours. Compounds were 3-fold serial diluted from 2 mM for 11-points using dimethyl sulfoxide. 1 μL of compound in DMSO was diluted in 50 μL stimulation buffer from an IP-One Tb HTRF kit (Cisbio #62IPAPEB) immediately before assay. 15 μL/well of 1.33× compound in stimulation buffer was added to cells after removal of culture medium. After 20 minutes of incubation at 37° C., 5 μL/well of 8 μM LPA diluted in stimulation buffer with 0.1% fatty acid free BSA was added to cells. […]. To EC100 wells were added 4×20 μM LPA. To the cells were added 5 μL/well IP1-d2 conjugate and 5 μLwell IP1-K antibody after 2 hours of incubation at 37° C. Cells were incubated at room temperature for 1 hour (protected from light). The plate was then read at 665 nm and 615 nm using an EnVision® Multilabel Plate Reader. IC50 values were calculated from curve fits of the ratio data using a four-parameter logistic Hill equation (Assay Explorer 3.3 Client).
# [2] = system: LPA-induced MCP-1 in NRK-49F cells; assay: LPA-induced MCP-1 AlphaLISA assay; settings: Rattus norvegicus, final LPA 10 μM, 7 hours; for Emax: read-out: Maximum Inhibition
# How it was run: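 NRK-49F rat fibroblasts, serum-starved overnight, pretreated with compound for 30 min at 37 °C (1% DMSO final), then stimulated with 10 μM LPA final. MCP-1 in the supernatant was measured by mouse/rat CCL2 AlphaLISA. IC50 values came from four-parameter logistic fits of the ratio data.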
# LPAR1 [3] = target: T1, LPAR1; assay: LPAR1 FLIPR Assay; settings: U2OS cells stably expressing LPAR1, LPA (EC80), Calcium 6 FLIPR dye; for Emax: read-out: Maximum Inhibition
# How it was run: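 U2OS cells stably expressing LPAR1 were loaded with Calcium 6 dye for 2 h at 37° C, preincubated 3 min with compound (11-point 3-fold series), then stimulated with LPA at EC80. Fluorescence at 515-575 nm was recorded by FLIPR; IC50 came from four-parameter logistic fits of ratio data.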
# T1 sequence (Q92633 whole entry): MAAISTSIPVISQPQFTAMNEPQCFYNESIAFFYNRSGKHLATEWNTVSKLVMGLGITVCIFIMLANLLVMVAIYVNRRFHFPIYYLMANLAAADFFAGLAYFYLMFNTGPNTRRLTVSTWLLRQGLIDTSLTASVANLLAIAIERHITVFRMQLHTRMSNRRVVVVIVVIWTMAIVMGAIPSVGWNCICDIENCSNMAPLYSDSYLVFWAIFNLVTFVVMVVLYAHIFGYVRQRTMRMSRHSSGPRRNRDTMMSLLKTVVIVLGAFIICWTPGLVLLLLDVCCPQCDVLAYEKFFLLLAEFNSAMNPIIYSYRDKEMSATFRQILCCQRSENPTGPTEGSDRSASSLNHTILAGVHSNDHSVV
Structure (SMILES),IC50 (LPAR1 [1]),Emax (LPAR1 [1]),IC50 [2],Emax [2],IC50 (LPAR1 [3]),Emax (LPAR1 [3])
"COc1cc(C(=O)N(CCCCC(=O)O)CCCc2ccco2)cc(OC)c1C [Example 173, 5-{(3,5-dimethoxy-4-methylbenzoyl)[3-(furan-2-yl)propyl]amino}pentanoic Acid]",523 nM,75%,4540 nM,64%,29 nM,74%
"COc1cc(C(=O)N(CCCc2ccccc2)CC(=O)NC2(C(=O)O)CC2)cc(OC)c1C [Example 3, 1-{[N-(3,5-dimethoxy-4-methylbenzoyl)-N-(3-phenylpropyl)glycyl]amino}cyclopropane-1-carboxylic Acid]",4270 nM,76%,3120 nM,74%,71 nM,52%
"COc1cc(C(=O)N(CCCc2ccccc2)CCOCP(=O)(O)O)cc(OC)c1C [Example 50, ({2-[(3,5-dimethoxy-4-methylbenzoyl)(3-phenylpropyl)amino]ethoxy}methyl)phosphonic Acid]",3 nM,85%,2 nM,98%,3 nM,101%
"COc1cc(C(=O)N(CCCc2ccccc2)CCSCCC(=O)O)cc(OC)c1C [Example 60, 3-({2-[(3,5-dimethoxy-4-methylbenzoyl)(3-phenylpropyl)amino]ethyl}sulfanyl)propanoic Acid]",208 nM,82%,1550 nM,84%,20 nM,95%
"COc1cc(C(=O)N(CCCCC(=O)O)CCCc2ccccc2)cc(OC)c1OC [Example 10, 5-[(3-phenylpropyl)(3,4,5-trimethoxybenzoyl)amino]pentanoic Acid]",333 nM,77%,4840 nM,70%,64 nM,92%
"COc1cc(OC)cc(C(=O)N(CCCCC(=O)O)CCCc2ccccc2)c1 [Example 7, 5-[(3,5-dimethoxybenzoyl)(3-phenylpropyl)amino]pentanoic Acid]",1750 nM,75%,2630 nM,71%,32 nM,82%
"COc1cc(C(=O)N(CCCc2cccc(F)c2)CCSCC(=O)O)cc(OC)c1C [Example 117, [(2-{(3,5-dimethoxy-4-methylbenzoyl)[3-(3-fluorophenyl)propyl]amino}ethyl)sulfanyl]acetic Acid]",473 nM,85%,180 nM,91%,10 nM,93%
"COc1cc(C(=O)N(CCCc2cccc(F)c2)CCOCC(=O)O)cc(OC)c1C [Example 129, (2-{(3,5-dimethoxy-4-methylbenzoyl)[3-(3-fluorophenyl)propyl]amino}ethoxy)acetic Acid]",1310 nM,96%,968 nM,90%,20 nM,93%
"COc1cc(C(=O)N(CCCCC(=O)O)CCCc2cccc(F)c2)cc(OC)c1C [Example 33, 5-{(3,5-dimethoxy-4-methylbenzoyl)[3-(3-fluorophenyl)propyl]amino}pentanoic Acid]",166 nM,76%,215 nM,84%,19 nM,99%
"COc1cc(C(=O)N(CCCCC(=O)O)CCCc2ccccc2F)cc(OC)c1C [Example 32, 5-{(3,5-dimethoxy-4-methylbenzoyl)[3-(2-fluorophenyl)propyl]amino}pentanoic Acid]",321 nM,88%,473 nM,89%,18 nM,98%
"COc1cc(C(=O)N(CCCc2cccc(Cl)c2)CCOCC(=O)O)cc(OC)c1C [Example 109, (2-{[3-(3-chlorophenyl)propyl](3,5-dimethoxy-4-methylbenzoyl)amino}ethoxy)acetic Acid]",809 nM,85%,1550 nM,91%,15 nM,93%
"COc1cc(C(=O)N(CCCc2ccccc2F)CCOCC(=O)O)cc(OC)c1C [Example 110, (2-{(3,5-dimethoxy-4-methylbenzoyl)[3-(2-fluorophenyl)propyl]amino}ethoxy)acetic Acid]",902 nM,82%,1260 nM,83%,16 nM,90%
"COc1cc(C(=O)N(CCCc2ccccc2)CCCC(C)(O)C(=O)O)cc(OC)c1C (stereo not drawn) [Example 155, 5-[(3,5-dimethoxy-4-methylbenzoyl)(3-phenylpropyl)amino]-2-hydroxy-2-methylpentanoic Acid]",663 nM,83%,763 nM,81%,27 nM,90%
"COc1ccc(C2(C(=O)N(CCCCC(=O)O)CCCc3ccccc3)CC2)cc1 [Example 8, 5-{[1-(4-methoxyphenyl)cyclopropane-1-carbonyl](3-phenylpropyl)amino}pentanoic Acid]",2250 nM,84%,1830 nM,84%,17 nM,86%
"COc1cc(C(=O)N(CCCCC(=O)NS(C)(=O)=O)CCCc2ccccc2)cc(OC)c1C [Example 111, N-{5-[(methanesulfonyl)amino]-5-oxopentyl}-3,5-dimethoxy-4-methyl-N-(3-phenylpropyl)benzamide]",570 nM,80%,787 nM,91%,28 nM,95%
"COc1cc(C(=O)N(CCCc2cccc(Cl)c2)CCSCC(=O)O)cc(OC)c1C [Example 122, [(2-{[3-(3-chlorophenyl)propyl](3,5-dimethoxy-4-methylbenzoyl)amino}ethyl)sulfanyl]acetic Acid]",134 nM,78%,419 nM,97%,10 nM,95%
"COc1cc(C(=O)N(CCCc2ccccc2)CCC[C@@H](C)C(=O)O)cc(OC)c1C (single isomer, unassigned) [Example 77]",77 nM,84%,60 nM,92%,20 nM,100%
"COc1cc(C(=O)N(CCCc2ccccc2)CCOCC(=O)NS(C)(=O)=O)cc(OC)c1C [Example 157, N-(2-{2-[(methanesulfonyl)amino]-2-oxoethoxy}ethyl)-3,5-dimethoxy-4-methyl-N-(3-phenylpropyl)benzamide]",920 nM,75%,460 nM,77%,16 nM,92%
"COc1ccc(C2(C(=O)N(CCCc3ccccc3)CCSCC(=O)O)CC2)cc1 [Example 115, [(2-{[1-(4-methoxyphenyl)cyclopropane-1-carbonyl](3-phenylpropyl)amino}ethyl)sulfanyl]acetic Acid]",2910 nM,71%,3540 nM,67%,30 nM,78%
"COc1cc(C(=O)N(CCCc2ccccc2F)CCSCC(=O)O)cc(OC)c1C [Example 116, [(2-{(3,5-dimethoxy-4-methylbenzoyl)[3-(2-fluorophenyl)propyl]amino}ethyl)sulfanyl]acetic Acid]",344 nM,81%,173 nM,85%,20 nM,88%
"COc1cc(C(=O)N(CCCCC(=O)O)CCCc2cccc(Cl)c2)cc(OC)c1C [Example 38, 5-{[3-(3-chlorophenyl)propyl](3,5-dimethoxy-4-methylbenzoyl)amino}pentanoic Acid]",194 nM,90%,108 nM,91%,14 nM,99%
"COc1cc(OC)cc(C(=O)N(CCCCC(=O)O)CCCc2cccc(Cl)c2)c1 [Example 91, 5-{[3-(3-chlorophenyl)propyl](3,5-dimethoxybenzoyl)amino}pentanoic Acid]",285 nM,70%,2090 nM,84%,25 nM,89%
